From publication PMC13366236 (Acta Pharmaceutica Sinica. B, 2025)
Where “and” joins values, the source holds several entries; their conditions need not be identical. Equal entries are not always repeated.

Tests used:
[1] = biological target: PI3Kβ (Homo sapiens, UniProt P42338); experiment: biochemical
[2] = biological target: PI3KC2g(h) (Homo sapiens, UniProt O75747); experiment: Kinase profiling; type: binding; conditions: 1.0 μmol/L
[3] = tested on: MDA-MB-231 cells; experiment: Colony formation assay; type: cell-based, human; conditions: MDA-MB-231, 0.05, 0.1, 0.5 μmol/L
[4] = tested on: MDA-MB-436 cells; experiment: Cell viability CCK-8 assay; type: cell-based; conditions: Homo sapiens, MDA-MB-436, 48 h, read-out: Antiproliferative IC50 ± SD
[5] = tested on: HCT-116 cells; experiment: Cell viability CCK-8 assay; type: cell-based; conditions: Homo sapiens, HCT-116, 48 h, read-out: Antiproliferative IC50 ± SD
[6] = biological target: CYP 2C19 (Homo sapiens, UniProt P33261); experiment: CYP enzyme inhibition; conditions: CYP 2C19 IC50
[7] = biological target: T1, mTOR (Homo sapiens, UniProt P42345); experiment: mTOR kinase inhibition, Lance Ultra assay; type: biochemical; conditions: mTOR, IC50, mean ± SD of triplicate measurements
[8] = biological target: PI3Kδ (Homo sapiens, UniProt O00329); experiment: biochemical
[9] = biological target: T1, mTOR; experiment: Cellular thermal shift assay; type: cell-based; conditions: MDA-MB-231 cells, 5 μmol/L, 8 h
[10] = tested on: MCF-7 cells; experiment: Cell viability CCK-8 assay; type: cell-based; conditions: Homo sapiens, MCF7, 48 h, read-out: Antiproliferative IC50 ± SD
[11] = biological target: CYP 2D6 (Homo sapiens, UniProt P10635); experiment: CYP enzyme inhibition; conditions: CYP 2D6 IC50
[12] = tested on: MDA-MB-231 cells; experiment: Transwell invasion assay; type: cell-based, human; conditions: MDA-MB-231, concentration-dependent
[13] = tested on: panel of 200 human kinases; experiment: Kinase-specificity profiling; type: binding; conditions: 1.0 μmol/L
[14] = tested on: MDA-MB-231 cells; experiment: Wound healing; type: cell-based, human; conditions: MDA-MB-231, 0.25, 0.5, 1.0 μmol/L, concentration-dependent
[15] = biological target: CYP 2C9 (Homo sapiens, UniProt P11712); experiment: CYP enzyme inhibition; conditions: CYP 2C9 IC50
[16] = tested on: cGAS/STING signaling pathway; experiment: Western blot of cGAS/STING signaling pathway in MDA-MB-231 cells; type: cell-based, human; conditions: MDA-MB-231, 0.5‒2.0 μmol/L, 24 h
[17] = tested on: PI3K/Akt/mTOR signaling pathway; experiment: Western blot of PI3K/Akt/mTOR signaling pathway in MDA-MB-231 cells; type: cell-based, human; conditions: MDA-MB-231, 0.5, 1, 2 μmol/L, 24 h
[18] = tested on: MDA-MB-231 cells; experiment: Autophagy induction, Western blot and LC3B immunofluorescence; type: cell-based, human; conditions: MDA-MB-231, 0.5, 1, 2 μmol/L, 24 h
[19] = biological target: CYP 3A4 (Homo sapiens, UniProt P08684); experiment: CYP enzyme inhibition; conditions: CYP 3A4 IC50
Chain of CYP 3A4 (P08684 whole entry): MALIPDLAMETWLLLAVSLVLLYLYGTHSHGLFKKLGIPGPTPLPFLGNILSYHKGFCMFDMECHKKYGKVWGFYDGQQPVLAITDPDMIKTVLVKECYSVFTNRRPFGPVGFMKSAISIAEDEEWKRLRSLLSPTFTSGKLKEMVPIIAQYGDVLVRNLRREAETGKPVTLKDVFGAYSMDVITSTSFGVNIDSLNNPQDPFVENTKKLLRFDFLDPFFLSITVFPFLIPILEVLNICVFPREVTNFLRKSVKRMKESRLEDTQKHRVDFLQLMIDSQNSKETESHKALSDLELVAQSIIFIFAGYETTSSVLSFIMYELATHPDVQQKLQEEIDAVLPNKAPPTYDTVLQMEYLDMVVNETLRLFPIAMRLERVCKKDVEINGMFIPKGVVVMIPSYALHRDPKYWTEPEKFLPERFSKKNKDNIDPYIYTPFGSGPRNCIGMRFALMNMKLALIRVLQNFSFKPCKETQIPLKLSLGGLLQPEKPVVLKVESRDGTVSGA

[20] = tested on: MDA-MB-231 cells; experiment: Apoptosis, Annexin V-AF647/7AAD flow cytometry; type: cell-based, human; conditions: 24 h
[21] = Pharmacokinetic study in SD rats; type: in vivo
[22] = biological target: PI3Kα (Homo sapiens, UniProt P42336); experiment: biochemical
Chain of PI3Kα (P42336 whole entry): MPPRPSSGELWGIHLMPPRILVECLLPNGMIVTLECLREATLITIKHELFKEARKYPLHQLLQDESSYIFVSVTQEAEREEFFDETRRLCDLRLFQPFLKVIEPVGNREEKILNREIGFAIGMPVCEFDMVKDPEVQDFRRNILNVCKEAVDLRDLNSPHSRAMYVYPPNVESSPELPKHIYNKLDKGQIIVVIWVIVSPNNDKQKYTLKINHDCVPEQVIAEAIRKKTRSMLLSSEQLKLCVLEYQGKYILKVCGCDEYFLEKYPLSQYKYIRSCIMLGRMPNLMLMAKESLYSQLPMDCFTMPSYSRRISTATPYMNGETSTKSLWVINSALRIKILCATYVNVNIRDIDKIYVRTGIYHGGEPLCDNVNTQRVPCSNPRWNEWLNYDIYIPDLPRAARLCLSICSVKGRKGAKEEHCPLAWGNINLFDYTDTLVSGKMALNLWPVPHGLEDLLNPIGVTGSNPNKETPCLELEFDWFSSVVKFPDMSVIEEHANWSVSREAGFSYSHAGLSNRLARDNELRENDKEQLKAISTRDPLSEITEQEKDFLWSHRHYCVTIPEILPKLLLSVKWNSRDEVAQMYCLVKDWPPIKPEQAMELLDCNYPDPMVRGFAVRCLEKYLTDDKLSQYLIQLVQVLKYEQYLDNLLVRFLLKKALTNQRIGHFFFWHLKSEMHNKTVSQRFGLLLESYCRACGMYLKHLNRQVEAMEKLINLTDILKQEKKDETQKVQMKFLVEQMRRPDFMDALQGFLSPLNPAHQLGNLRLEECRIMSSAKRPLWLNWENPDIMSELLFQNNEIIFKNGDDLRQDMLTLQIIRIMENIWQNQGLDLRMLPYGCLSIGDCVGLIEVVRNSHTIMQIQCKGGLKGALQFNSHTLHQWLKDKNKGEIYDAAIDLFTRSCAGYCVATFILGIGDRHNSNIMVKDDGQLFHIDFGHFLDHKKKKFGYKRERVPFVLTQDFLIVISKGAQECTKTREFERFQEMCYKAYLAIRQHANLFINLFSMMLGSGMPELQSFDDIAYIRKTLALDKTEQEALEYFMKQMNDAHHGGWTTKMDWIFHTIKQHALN
Chain of PI3Kα (P27986 whole entry partner): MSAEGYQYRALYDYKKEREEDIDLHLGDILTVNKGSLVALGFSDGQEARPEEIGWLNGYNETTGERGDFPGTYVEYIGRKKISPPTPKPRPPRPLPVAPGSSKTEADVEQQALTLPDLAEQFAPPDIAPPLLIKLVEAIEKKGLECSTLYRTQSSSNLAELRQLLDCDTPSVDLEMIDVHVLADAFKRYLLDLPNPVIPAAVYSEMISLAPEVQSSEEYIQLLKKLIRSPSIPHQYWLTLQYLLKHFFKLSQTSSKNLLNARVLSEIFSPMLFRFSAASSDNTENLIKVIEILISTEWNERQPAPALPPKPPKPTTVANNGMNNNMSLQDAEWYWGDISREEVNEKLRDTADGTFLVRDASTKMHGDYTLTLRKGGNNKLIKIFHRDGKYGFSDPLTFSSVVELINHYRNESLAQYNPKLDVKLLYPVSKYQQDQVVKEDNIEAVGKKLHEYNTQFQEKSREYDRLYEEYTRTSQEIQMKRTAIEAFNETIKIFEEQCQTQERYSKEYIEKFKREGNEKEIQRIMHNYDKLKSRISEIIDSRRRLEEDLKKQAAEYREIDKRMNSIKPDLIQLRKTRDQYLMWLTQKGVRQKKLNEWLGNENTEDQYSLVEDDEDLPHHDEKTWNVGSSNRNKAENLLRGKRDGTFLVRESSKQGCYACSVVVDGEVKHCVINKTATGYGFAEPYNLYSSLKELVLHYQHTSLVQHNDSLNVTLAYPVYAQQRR

[23] = tested on: MDA-MB-231 xenograft; experiment: MDA-MB-231 xenograft tumor model; type: in vivo, female BALB/c nude mice; conditions: i.v., Q3D × 6, Day 15; for TGI: listed as MT-44; for Tumor size: mean ± SEM
[24] = tested on: MDA-MB-468 cells; experiment: Cell viability CCK-8 assay; type: cell-based; conditions: Homo sapiens
[25] = tested on: MDA-MB-231 cells; experiment: Cell viability CCK-8 assay; type: cell-based, human
[26] = biological target: PI3Kγ (Homo sapiens, UniProt P48736); experiment: biochemical
Chain of PI3Kγ (P48736 whole entry): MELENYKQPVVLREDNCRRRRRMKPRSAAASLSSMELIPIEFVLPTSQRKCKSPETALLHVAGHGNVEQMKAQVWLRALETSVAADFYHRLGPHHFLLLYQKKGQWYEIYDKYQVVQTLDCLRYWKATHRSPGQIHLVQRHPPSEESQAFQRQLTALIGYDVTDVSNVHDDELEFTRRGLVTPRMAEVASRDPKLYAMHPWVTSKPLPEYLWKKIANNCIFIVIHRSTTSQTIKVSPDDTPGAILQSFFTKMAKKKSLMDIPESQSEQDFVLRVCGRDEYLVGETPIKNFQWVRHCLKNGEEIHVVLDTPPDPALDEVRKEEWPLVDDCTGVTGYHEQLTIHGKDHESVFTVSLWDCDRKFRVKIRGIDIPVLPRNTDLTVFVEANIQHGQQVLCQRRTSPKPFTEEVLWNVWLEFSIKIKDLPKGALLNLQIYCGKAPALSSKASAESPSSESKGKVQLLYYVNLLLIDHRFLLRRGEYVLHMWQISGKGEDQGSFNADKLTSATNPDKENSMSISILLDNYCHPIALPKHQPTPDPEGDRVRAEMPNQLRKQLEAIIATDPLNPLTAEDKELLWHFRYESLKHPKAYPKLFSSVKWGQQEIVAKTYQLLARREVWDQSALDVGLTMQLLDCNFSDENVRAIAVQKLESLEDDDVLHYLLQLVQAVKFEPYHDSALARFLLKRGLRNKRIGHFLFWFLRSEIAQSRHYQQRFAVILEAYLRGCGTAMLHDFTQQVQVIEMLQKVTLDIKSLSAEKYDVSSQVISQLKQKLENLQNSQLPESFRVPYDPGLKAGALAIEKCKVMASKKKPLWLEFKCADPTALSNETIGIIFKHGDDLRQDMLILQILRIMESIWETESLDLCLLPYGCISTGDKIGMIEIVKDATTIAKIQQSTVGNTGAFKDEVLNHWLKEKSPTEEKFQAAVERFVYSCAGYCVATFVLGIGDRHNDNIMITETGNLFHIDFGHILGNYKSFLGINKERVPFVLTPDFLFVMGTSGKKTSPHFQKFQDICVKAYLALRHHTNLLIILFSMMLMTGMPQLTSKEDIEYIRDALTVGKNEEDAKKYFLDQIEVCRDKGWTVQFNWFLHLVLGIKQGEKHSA

[27] = biological target: CYP 1A2 (Homo sapiens, UniProt P05177); experiment: CYP enzyme inhibition
[28] = Sprague-Dawley, rat, plasma, iv, 5 mg/kg
[29] = Sprague-Dawley, rat, plasma, po, 20 mg/kg

Chain of PI3KC2g(h) (O75747 whole entry): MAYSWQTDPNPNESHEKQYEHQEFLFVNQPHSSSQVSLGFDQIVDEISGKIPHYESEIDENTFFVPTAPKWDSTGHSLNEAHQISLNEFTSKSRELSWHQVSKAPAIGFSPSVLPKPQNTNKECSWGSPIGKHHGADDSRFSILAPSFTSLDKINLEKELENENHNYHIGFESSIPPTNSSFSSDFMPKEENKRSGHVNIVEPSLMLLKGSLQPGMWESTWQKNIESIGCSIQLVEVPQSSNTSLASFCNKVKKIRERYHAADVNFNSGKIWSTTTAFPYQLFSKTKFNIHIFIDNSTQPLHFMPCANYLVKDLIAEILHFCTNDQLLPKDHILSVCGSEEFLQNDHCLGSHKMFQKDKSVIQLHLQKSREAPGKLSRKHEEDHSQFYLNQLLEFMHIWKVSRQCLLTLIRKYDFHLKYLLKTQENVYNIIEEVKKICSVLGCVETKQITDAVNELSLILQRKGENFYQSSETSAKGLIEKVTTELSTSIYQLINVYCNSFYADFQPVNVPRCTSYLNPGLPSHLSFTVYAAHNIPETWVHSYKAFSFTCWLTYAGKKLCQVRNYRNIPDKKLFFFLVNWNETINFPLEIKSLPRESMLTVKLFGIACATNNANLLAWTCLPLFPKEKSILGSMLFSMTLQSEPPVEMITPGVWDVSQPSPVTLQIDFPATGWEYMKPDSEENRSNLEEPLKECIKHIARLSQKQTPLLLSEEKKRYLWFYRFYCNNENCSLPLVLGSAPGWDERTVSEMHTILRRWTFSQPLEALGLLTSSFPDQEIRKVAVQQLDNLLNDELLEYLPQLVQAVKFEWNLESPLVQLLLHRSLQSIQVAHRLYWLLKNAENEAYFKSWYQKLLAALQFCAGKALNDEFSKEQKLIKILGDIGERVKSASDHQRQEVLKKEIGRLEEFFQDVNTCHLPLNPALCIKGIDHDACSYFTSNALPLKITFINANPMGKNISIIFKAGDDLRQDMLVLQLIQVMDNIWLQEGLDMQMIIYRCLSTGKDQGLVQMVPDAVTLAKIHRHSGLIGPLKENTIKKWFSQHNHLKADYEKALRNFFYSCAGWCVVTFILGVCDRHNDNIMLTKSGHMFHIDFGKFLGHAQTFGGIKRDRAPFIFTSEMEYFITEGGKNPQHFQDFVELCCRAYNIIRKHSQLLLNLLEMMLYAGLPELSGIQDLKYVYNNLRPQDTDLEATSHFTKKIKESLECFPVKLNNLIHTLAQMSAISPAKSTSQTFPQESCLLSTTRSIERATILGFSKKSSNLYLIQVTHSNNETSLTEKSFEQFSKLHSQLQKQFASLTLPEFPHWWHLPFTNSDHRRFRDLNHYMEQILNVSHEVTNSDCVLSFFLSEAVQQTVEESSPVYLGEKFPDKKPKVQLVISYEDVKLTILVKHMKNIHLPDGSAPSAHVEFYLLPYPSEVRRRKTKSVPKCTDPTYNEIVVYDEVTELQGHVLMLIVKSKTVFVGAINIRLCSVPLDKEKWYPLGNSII

## COc1ccc2oc(-c3ccc4nc(N)oc4c3)c/c(=N\c3ccccc3NC(=O)CCN)c2c1 [Compound 12j, (E)-3-amino-N-(2-((2-(2-aminobenzo[d]oxazol-6-yl)-6-methoxy-4H-chromen-4-ylidene)amino)phenyl)propanamide]
[1]
  IC50: > 10000 nM
[2]
  binding to PI3KC2γ: weak binding
[3]
  colony formation ability: significantly inhibited
[4]
  IC50: 148 ± 1.7 nM
[5]
  IC50: 555 ± 315 nM
[6]
  IC50: > 50000 nM
[7]
  IC50: 49.4 ± 17.1 nM
[8]
  IC50: > 10000 nM
[9]
  target engagement of mTOR in CETSA: directly interacts with mTOR protein
[10]
  IC50: 328 ± 5.4 nM
[11]
  IC50: 19900 nM
[12]
  invasion: significantly inhibit the invasion
[13]
  binding activity to the panel of kinases: no obvious binding activity
[14]
  anti-migration effect: significantly inhibit the migration
[15]
  IC50: > 50000 nM
[16]
  phosphorylation of STING(Ser366), TBK(Ser172), IRF3(Ser366): concentration-dependent increase
[17]
  expression of p-P70S6K(Thr389), p-Akt(Ser473), p-4EBP1(Thr37/46): significantly downregulated in a concentration-dependent manner
[18]
  autophagy induction: significantly enhanced autophagy induction
[19]
  IC50: > 50000 nM
[20]; MDA-MB-231, 0.5 μmol/L
  percentage of total apoptotic cells: 4.73%
[20]; MDA-MB-231, 1 μmol/L
  percentage of total apoptotic cells: 9.43%
[20]; MDA-MB-231, 2 μmol/L
  percentage of total apoptotic cells: 22.23%
[21]; SD rats, i.g. 20 mg/kg
  Cl: 0.75 ± 0.07 mL/min/kg
  Vss: 15.04 ± 4.24 L/kg
[21]; [28]
  AUC(0-inf): 29900 ng·h/mL
  AUC(0-t): 28800 ng·h/mL
  Cmax: 29200 ng/mL
  MRT last: 2.93 ± 0.16 h
  Tmax: 0.05 h
  Vd: 4.43 ± 0.93 L/kg
  clearance: 2.83 mL/min/kg
  half-life: 14.1 ± 3.35 h
[21]; Sprague-Dawley, rat, plasma, oral, 20 mg/kg
  bioavailability: 4.75%
[21]; [29]
  AUC(0-inf): 5680 ± 501 ng·h/mL
  AUC(0-t): 5300 ± 514 ng·h/mL
  Cmax: 1150 ± 174 ng/mL
  MRT last: 5.44 ± 0.2 h
  Tmax: 1.4 ± 0.55 h
  half-life: 14 ± 4.11 h
[22]
  IC50: > 10000 nM
[23]; 10 mg/kg
  T/C: 61.36%
  TGI: 38.64% and 38.64 ^d %
  Tumor size: 210.95 ± 33.18 mm^3
[23]; 20 mg/kg
  T/C: 27.27%
  TGI: 72.73% and 72.73 ^e %
  Tumor size: 115.97 ± 20.63 mm^3
[24]; MDA-MB-468, read-out: Antiproliferative IC50
  IC50: 148 nM
[24]; MDA-MB-468, read-out: Inhibition rate @ 1.0 μmol/L
  inhibition at 1 µM: 74%
[25]; Homo sapiens, MDA-MB-231, 48 h, read-out: Antiproliferative IC50 ± SD
  IC50: 66.5 ± 1.5 nM
[25]; MDA-MB-231
  fold more potent antiproliferative effect than Doxorubicin: 1.1 fold
  fold more potent antiproliferative effect than Everolimus: 34.4 fold
[26]
  IC50: > 10000 nM
[27]
  IC50: > 50000 nM
